Values quoted from earlier work in patent US20030149013A1, “Methods of treating bacterial infections in dogs and cats” (priority 2001, published 2003).
Read-outs that look alike come from different tables or passages of the source.

What was measured:
[1] = dog

## O=C(Cc1cccs1)N[C@@H]1C(=O)N2C(C(=O)[O-])=C(C[n+]3ccccc3)CS[C@H]12 [Cephalordine]
IM (intramuscular)
  Rat t1/2: 0.5 (IM) h
[1]; IM (intramuscular)
  Canine t1/2: 0.97 (IM) h

## CC1=C(C(=O)O)N2C(=O)[C@@H](NC(=O)[C@H](N)C3=CCC=CC3)[C@H]2SC1 [Cephadrine]
PO (per os)
  Rat t1/2: 0.82 (PO) h
[1]; PO (per os)
  Canine t1/2: 3.64 (P0) h
